Reference: US20250325677A1, “STAT6 DEGRADERS” (Gilead Sciences, Inc., priority 2024, published 2025)
“And” between values parts separate entries of the source, which are not always exact repeats. Identical values can stand only once.

How the values were obtained:
eotaxin-3 release = experiment: Human whole blood eotaxin-3 assay (IL-4 stimulated); type: cell-based; details: human whole blood, IL-4 0.4 nM, 48 hours; geometric mean; given for compounds with >80% Emax; read-out: Eotaxin-3 EC50
Description: Human Whole Blood Eotaxin-3 Assay
This was a human whole blood assay using recombinant human Interleukin 4 to stimulate the blood and measuring the ability of the test compounds to inhibit eotaxin-3 release. Compounds or media were added to the wells and incubated together with human whole blood for 120 minutes at 37° C. Subsequently, recombinant IL-4 was added at a final concentration of 0.4 nM. The plates were incubated for 48 hours.
Test compounds which inhibited eotaxin-3 release upon stimulation with human IL-4 (E. coli) interfered with the signaling in human whole blood are expected to have activity in human beings. […] The EC50 value indicates at which concentration test compounds were active and in inhibiting the eotaxin-3 release. As eotaxin-3 release is down-stream of STAT6 signaling both STAT6 inhibitors and STAT6 degraders are active in this assay.
The data from the human whole blood eotaxin-3 assay is shown below for Examples 3e27, 3e50, 3e17, and 3e51 (where the effect in % is plotted against the test concentration in M on a log-scale).

STAT6 = STAT6 (Homo sapiens (Human), UniProt P42226); experiment: STAT6 degrader assay (HiBiT, HeLa LgBiT clone 4.14); type: cell-based; details: HeLa LgBiT clone 4.14, 4-24 h; for DC50: geometric mean, given for compounds with >80% Emax, read-out: STAT6 degradation DC50
STAT6, sequence (P42226 whole entry): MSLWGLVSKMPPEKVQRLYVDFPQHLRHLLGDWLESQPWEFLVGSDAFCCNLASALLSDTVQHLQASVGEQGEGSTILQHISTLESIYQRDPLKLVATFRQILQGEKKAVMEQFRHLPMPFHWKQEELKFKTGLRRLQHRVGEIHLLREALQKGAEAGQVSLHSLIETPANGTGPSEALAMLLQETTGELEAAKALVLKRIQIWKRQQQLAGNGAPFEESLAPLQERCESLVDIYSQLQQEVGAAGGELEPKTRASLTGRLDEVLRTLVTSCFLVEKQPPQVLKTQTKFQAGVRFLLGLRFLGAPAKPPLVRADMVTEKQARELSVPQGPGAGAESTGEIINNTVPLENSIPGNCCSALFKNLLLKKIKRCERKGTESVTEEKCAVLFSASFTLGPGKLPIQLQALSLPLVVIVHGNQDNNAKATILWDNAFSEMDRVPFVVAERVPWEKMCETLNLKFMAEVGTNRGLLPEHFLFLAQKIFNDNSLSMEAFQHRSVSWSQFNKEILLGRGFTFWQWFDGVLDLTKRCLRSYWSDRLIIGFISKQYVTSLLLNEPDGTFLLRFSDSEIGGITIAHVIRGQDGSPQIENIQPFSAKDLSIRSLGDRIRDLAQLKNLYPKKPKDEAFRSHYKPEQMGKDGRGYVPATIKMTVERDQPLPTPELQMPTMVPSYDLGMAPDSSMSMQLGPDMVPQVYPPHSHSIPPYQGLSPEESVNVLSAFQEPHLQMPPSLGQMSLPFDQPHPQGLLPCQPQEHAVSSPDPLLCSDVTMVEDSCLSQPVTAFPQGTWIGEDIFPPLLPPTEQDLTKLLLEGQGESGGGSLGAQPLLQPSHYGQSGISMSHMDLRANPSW
Procedure, shortened: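 DC50 (nM) comes from luminescence of non-degraded STAT6 read 0.5 h after Nano-GLO addition, following 4-24 h compound exposure at 37° C. Cells were HeLa clone 4.14 expressing LgBiT with a CRISPR HiBiT tag on endogenous STAT6; 50 μM terfenadine set full degradation.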

Row | Structure (SMILES) | EC50 (eotaxin-3 release) [nM] | DC50 (STAT6) | Emax (STAT6; read-out: STAT6 degradation Emax (%)) [%]
1 | C[C@H]1CN(Cc2ccc3c(c2)n(C)c(=O)n3[C@H]2CCC(=O)NC2=O)CCN1CC1CCN(C(=O)c2ccc(C3CCN([C@@H](C)c4cc5c(-c6ccc(N)nc6)ccnc5n4C)CC3)cc2)CC1 (single isomer, unassigned) [Example 3e46] | 0.8 | 0.3 nM | 
2 | C[C@H]1CN(Cc2ccc3c(c2)n(C)c(=O)n3[C@@H]2CCC(=O)NC2=O)CCN1CC1CCN(C(=O)c2ccc(C3CCN([C@@H](C)c4cc5c(-c6ccc(N)nc6)ccnc5n4C)CC3)cc2)CC1 (single isomer, unassigned) [Example 3e49] | 1.4 | 0.3 nM | 
3 | C[C@H]1CN(Cc2ccc3c(c2)n(C2CC2)c(=O)n3[C@H]2CCC(=O)NC2=O)CCN1CC1CCN(C(=O)c2ccc(C3CCN([C@@H](C)c4cc5c(-c6ccc(N)nc6)ccnc5n4C)CC3)cc2)CC1 (single isomer, unassigned) [Example 3e50] | 2.3 | 1 nM | 
4 | C[C@H]1CN(Cc2ccc3c(c2)n(C2CC2)c(=O)n3[C@@H]2CCC(=O)NC2=O)CCN1CC1CCN(C(=O)c2ccc(C3CCN([C@@H](C)c4cc5c(-c6ccc(N)nc6)ccnc5n4C)CC3)cc2)CC1 (single isomer, unassigned) [Example 3e51] | 3.1 | 0.8 nM | 
5 | C[C@H]1CN(Cc2cc3c(cc2F)n([C@@H]2CCC(=O)NC2=O)c(=O)n3C)CCN1CC1CCN(C(=O)c2ccc(C3CCN([C@@H](C)c4cc5c(-c6ccc(N)nc6)ccnc5n4C)CC3)cc2)CC1 (single isomer, unassigned) [Example 3e60] | 1.2 | 0.3 nM | 
6 | C[C@H]1CN(Cc2cc3c(cc2F)n([C@@H]2CCC(=O)NC2=O)c(=O)n3C2CC2)CCN1CC1CCN(C(=O)c2ccc(C3CCN([C@@H](C)c4cc5c(-c6ccc(N)nc6)ccnc5n4C)CC3)cc2)CC1 (single isomer, unassigned) [Example 3e61] | 3.5 | 1.4 nM | 
7 | C[C@H]1CN(Cc2cc3c(cc2F)n([C@H]2CCC(=O)NC2=O)c(=O)n3C2CC2)CCN1CC1CCN(C(=O)c2ccc(C3CCN([C@@H](C)c4cc5c(-c6ccc(N)nc6)ccnc5n4C)CC3)cc2)CC1 (single isomer, unassigned) [Example 3e62] | 4.9 | 0.8 nM | 
8 | C[C@H]1CN(Cc2cc3c(cc2F)n([C@H]2CCC(=O)NC2=O)c(=O)n3C)CCN1CC1CCN(C(=O)c2ccc(C3CCN([C@@H](C)c4cc5c(-c6ccc(N)nc6)ccnc5n4C)CC3)cc2)CC1 (single isomer, unassigned) [Example 3e63] | 1.2 | 0.2 nM | 
9 | CC[C@H]1CN(Cc2ccc3c(c2)n(C2CC2)c(=O)n3[C@@H]2CCC(=O)NC2=O)CCN1CC1CCN(C(=O)c2ccc(C3CCN([C@@H](C)c4cc5c(-c6ccc(N)nc6)ccnc5n4C)CC3)cc2)CC1 (single isomer, unassigned) [Example 3e64] | 6 | 2 nM | 
10 | CC[C@H]1CN(Cc2ccc3c(c2)n(C2CC2)c(=O)n3[C@H]2CCC(=O)NC2=O)CCN1CC1CCN(C(=O)c2ccc(C3CCN([C@@H](C)c4cc5c(-c6ccc(N)nc6)ccnc5n4C)CC3)cc2)CC1 (single isomer, unassigned) [Example 3e65] | 5.4 | 2.6 nM | 
11 | CNc1ccc(-c2ccnc3c2cc([C@H](C)N2CCC(c4ccc(C(=O)N5CCC(CN6CCN(Cc7ccc8c(c7)n(C7CC7)c(=O)n8[C@H]7CCC(=O)NC7=O)C[C@@H]6C)CC5)cc4)CC2)n3C)cn1 (single isomer, unassigned) [Example 3h26] | 3.1 | 1.4 nM | 
12 | CNc1ccc(-c2ccnc3c2cc([C@H](C)N2CCC(c4ccc(C(=O)N5CCC(CN6CCN(Cc7ccc8c(c7)n(C7CC7)c(=O)n8[C@@H]7CCC(=O)NC7=O)C[C@@H]6C)CC5)cc4)CC2)n3C)cn1 (single isomer, unassigned) [Example 3h27] | 5.8 | 1.8 nM | 
13 | Cn1c(CN2CCC(c3ccc(C(=O)N4CCC(CN5CCN(Cc6ccc7c(c6)n(C)c(=O)n7C6CCC(=O)NC6=O)CC5)CC4)cc3)CC2)cc2c(-c3ccc(N)nc3)ccnc21 (stereo not shown) [Example 3e2, 3-(5-((4-((1-(4-(1-((4-(6-aminopyridin-3-yl)-1-methyl-1H-pyrrolo[2,3-b]pyridin-2-yl)methyl)piperidin-4-yl)benzoyl)piperidin-4-yl)methyl)piperazin-1-yl)methyl)-3-methyl-2-oxo-2,3-dihydro-1H-benzo[d]imidazol-1-yl)piperidine-2,6-dione] | 98.7 | 4.6 nM | 
14 | COCc1nc2cc(-c3ccnc4c3cc(CN3CCC(c5ccc(C(=O)N6CCC(CN7CCN(Cc8ccc9c(c8)n(C)c(=O)n9C8CCC(=O)NC8=O)CC7)CC6)cc5)CC3)n4C)ccc2[nH]1 (stereo not shown) [Example 3e3, 3-(5-((4-((1-(4-(1-((4-(2-(methoxymethyl)-1H-benzo[d]imidazol-5-yl)-1-methyl-1H-pyrrolo[2,3-b]pyridin-2-yl)methyl)piperidin-4-yl)benzoyl)piperidin-4-yl)methyl)piperazin-1-yl)methyl)-3-methyl-2-oxo-2,3-dihydro-1H-benzo[d]imidazol-1-yl)piperidine-2,6-dione] | 14.4 | 0.8 nM | 
15 | C[C@H]1CN(Cc2ccc3c(c2)n(C)c(=O)n3C2CCC(=O)NC2=O)CCN1CC1CCN(C(=O)c2ccc(C3CCN(Cc4cc5c(-c6ccc(N)nc6)ccnc5n4C)CC3)cc2)CC1 (stereo partly drawn) [Example 3e9, 3-(5-(((S)-4-((1-(4-(1-((4-(6-aminopyridin-3-yl)-1-methyl-1H-pyrrolo[2,3-b]pyridin-2-yl)methyl)piperidin-4-yl)benzoyl)piperidin-4-yl)methyl)-3-methylpiperazin-1-yl)methyl)-3-methyl-2-oxo-2,3-dihydro-1H-benzo[d]imidazol-1-yl)piperidine-2,6-dione] | 31 | 0.75 nM | 
16 | C[C@H]1CN(Cc2ccc3c(c2)n(C2CC2)c(=O)n3C2CCC(=O)NC2=O)CCN1CC1CCN(C(=O)c2ccc(C3CCN(Cc4cc5c(-c6ccc(N)nc6)ccnc5n4C)CC3)cc2)CC1 (stereo partly drawn) [Example 3e13, 3-(5-(((S)-4-((1-(4-(1-((4-(6-aminopyridin-3-yl)-1-methyl-1H-pyrrolo[2,3-b]pyridin-2-yl)methyl)piperidin-4-yl)benzoyl)piperidin-4-yl)methyl)-3-methylpiperazin-1-yl)methyl)-3-cyclopropyl-2-oxo-2,3-dihydro-1H-benzo[d]imidazol-1-yl)piperidine-2,6-dione] | 37.6 | 0.9 nM and 1.1 nM | 
17 | Cn1c(CN2CCC(c3ccc(C(=O)N4CCC(CN5CCN(Cc6cc7c(cc6F)n(C6CCC(=O)NC6=O)c(=O)n7C)CC5)CC4)cc3)CC2)cc2c(-c3ccc(N)nc3)ccnc21 (stereo not shown) [Example 3e15, 3-(5-((4-((1-(4-(1-((4-(6-aminopyridin-3-yl)-1-methyl-1H-pyrrolo[2,3-b]pyridin-2-yl)methyl)piperidin-4-yl)benzoyl)piperidin-4-yl)methyl)piperazin-1-yl)methyl)-6-fluoro-3-methyl-2-oxo-2,3-dihydro-1H-benzo[d]imidazol-1-yl)piperidine-2,6-dione] | 135 |  | 70 to 80
18 | C[C@H]1CN(Cc2ccc3c(c2)n(C)c(=O)n3C2CCC(=O)NC2=O)CCN1CC1CCN(C(=O)c2ccc(C3CCN([C@@H](C)c4cc5c(-c6ccc(N)nc6)ccnc5n4C)CC3)cc2)CC1 (stereo partly drawn) [Example 3e16, 3-(5-(((S)-4-((1-(4-(1-((S)-1-(4-(6-aminopyridin-3-yl)-1-methyl-1H-pyrrolo[2,3-b]pyridin-2-yl)ethyl)piperidin-4-yl)benzoyl)piperidin-4-yl)methyl)-3-methylpiperazin-1-yl)methyl)-3-methyl-2-oxo-2,3-dihydro-1H-benzo[d]imidazol-1-yl)piperidine-2,6-dione] | 1.3 | 0.4 nM | 
19 | C[C@H]1CN(Cc2ccc3c(c2)n(C2CC2)c(=O)n3C2CCC(=O)NC2=O)CCN1CC1CCN(C(=O)c2ccc(C3CCN([C@@H](C)c4cc5c(-c6ccc(N)nc6)ccnc5n4C)CC3)cc2)CC1 (stereo partly drawn) [Example 3e17, 3-(5-(((S)-4-((1-(4-(1-((S)-1-(4-(6-aminopyridin-3-yl)-1-methyl-1H-pyrrolo[2,3-b]pyridin-2-yl)ethyl)piperidin-4-yl)benzoyl)piperidin-4-yl)methyl)-3-methylpiperazin-1-yl)methyl)-3-cyclopropyl-2-oxo-2,3-dihydro-1H-benzo[d]imidazol-1-yl)piperidine-2,6-dione] | 2.8 | 0.8 nM | 
20 | C[C@@H]1CN(Cc2ccc3c(c2)n(C)c(=O)n3C2CCC(=O)NC2=O)C[C@H](C)N1CC1CCN(C(=O)c2ccc(C3CCN([C@@H](C)c4cc5c(-c6ccc(N)nc6)ccnc5n4C)CC3)cc2)CC1 (stereo partly drawn) [Example 3e18, 3-(5-((4-((1-(4-(1-((S)-1-(4-(6-aminopyridin-3-yl)-1-methyl-1H-pyrrolo[2,3-b]pyridin-2-yl)ethyl)-piperidin-4-yl)benzoyl)piperidin-4-yl)methyl)-3,5-cis-dimethylpiperazin-1-yl)methyl)-3-methyl-2-oxo-2,3-dihydro-1H-benzo[d]imidazol-1-yl)piperidine-2,6-dione] | 5.5 | 1.4 nM | 
